Tests used:
[1] = molecular target: T1, DNMT1 (Homo sapiens, UniProt P26358); assay: in vitro DNMT activity/inhibition assay with purified DNMT1, positive control; type: biochemical
[2] = molecular target: T1, DNMT1; assay: in vitro DNMT activity/inhibition assay (colorimetric, Active Motif) with purified DNMT1; type: biochemical

T1 sequence (P26358 whole entry): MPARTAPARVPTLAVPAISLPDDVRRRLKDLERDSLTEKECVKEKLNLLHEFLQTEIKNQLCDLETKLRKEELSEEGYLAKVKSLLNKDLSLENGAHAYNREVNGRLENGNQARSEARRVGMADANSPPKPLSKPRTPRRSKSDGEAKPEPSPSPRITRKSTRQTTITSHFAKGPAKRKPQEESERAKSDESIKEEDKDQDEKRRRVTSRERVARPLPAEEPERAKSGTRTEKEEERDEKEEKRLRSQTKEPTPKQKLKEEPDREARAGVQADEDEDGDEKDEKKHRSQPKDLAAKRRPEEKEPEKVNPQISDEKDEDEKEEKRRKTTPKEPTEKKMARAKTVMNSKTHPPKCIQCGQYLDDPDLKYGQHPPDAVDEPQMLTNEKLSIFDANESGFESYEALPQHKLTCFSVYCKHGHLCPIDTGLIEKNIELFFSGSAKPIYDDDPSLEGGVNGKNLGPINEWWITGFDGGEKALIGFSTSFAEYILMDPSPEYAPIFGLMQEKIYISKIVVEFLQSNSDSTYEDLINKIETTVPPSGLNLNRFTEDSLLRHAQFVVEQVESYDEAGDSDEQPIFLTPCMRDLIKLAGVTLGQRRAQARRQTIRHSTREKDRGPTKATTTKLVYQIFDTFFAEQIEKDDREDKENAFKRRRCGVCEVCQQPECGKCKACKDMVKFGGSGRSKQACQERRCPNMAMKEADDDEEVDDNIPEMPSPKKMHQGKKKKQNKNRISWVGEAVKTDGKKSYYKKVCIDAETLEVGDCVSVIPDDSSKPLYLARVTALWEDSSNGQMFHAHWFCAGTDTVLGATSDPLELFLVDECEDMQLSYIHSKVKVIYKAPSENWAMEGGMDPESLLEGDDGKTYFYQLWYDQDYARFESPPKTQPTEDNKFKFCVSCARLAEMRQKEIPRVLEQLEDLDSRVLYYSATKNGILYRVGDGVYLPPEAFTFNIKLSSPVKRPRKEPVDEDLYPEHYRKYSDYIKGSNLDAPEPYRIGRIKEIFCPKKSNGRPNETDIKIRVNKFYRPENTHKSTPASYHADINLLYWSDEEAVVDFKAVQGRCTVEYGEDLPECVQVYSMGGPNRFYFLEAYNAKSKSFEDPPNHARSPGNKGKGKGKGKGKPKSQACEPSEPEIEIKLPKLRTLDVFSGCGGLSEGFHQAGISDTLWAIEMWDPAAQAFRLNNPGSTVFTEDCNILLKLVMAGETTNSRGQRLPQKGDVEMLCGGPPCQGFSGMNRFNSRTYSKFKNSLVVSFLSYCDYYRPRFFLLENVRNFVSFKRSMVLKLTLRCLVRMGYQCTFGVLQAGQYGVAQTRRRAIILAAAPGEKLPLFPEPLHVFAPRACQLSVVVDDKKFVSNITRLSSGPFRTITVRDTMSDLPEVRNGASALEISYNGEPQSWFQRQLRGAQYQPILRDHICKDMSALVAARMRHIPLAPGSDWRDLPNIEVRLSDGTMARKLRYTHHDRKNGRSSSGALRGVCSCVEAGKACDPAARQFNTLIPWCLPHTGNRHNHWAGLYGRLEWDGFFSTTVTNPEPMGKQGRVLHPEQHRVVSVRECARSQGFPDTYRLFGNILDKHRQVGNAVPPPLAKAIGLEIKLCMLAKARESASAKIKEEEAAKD

IC50 [2] [µM]	SMILES	in vitro DNMT activity/inhibition assay with purified DNMT1, positive control [1]
–	O=C(O[C@@H]1Cc2c(O)cc(O)cc2O[C@@H]1c1cc(O)c(O)c(O)c1)c1cc(O)c(O)c(O)c1 [EGCG, Epigallocatechin gallate]	Green tea polyphenol EGCG was used as a positive control for in vitro DNMT1 inhibition.
13.5 ± 5.4	COC1=C(Br)[C@H](O)[C@@]2(C=C1Br)CC(C(=O)NCC(O)COc1c(Br)cc(C(O)CNC(=O)C3=NO[C@]4(C=C(Br)C(OC)=C(Br)[C@@H]4O)C3)cc1Br)=NO2 (some centres unmarked) [Iso-3, Isofistularin-3]	–
